{"source": "patent EP0808626A1", "about": "“Use of acetyl-L-carnitine for the treatment of presenile Alzheimer's disease” (Sigma-Tau Industrie Farmaceutiche Riunite S.p.A., priority 1996, dated 1997)", "key": {"[1]": {"details": "stated to justify doses larger than 1 to 4 g/day; cited from earlier work"}, "[2]": {"test_system": "early-onset AD patients", "assay": "Double-blind, randomized, placebo-controlled trials with cognitive and functional clinical rating scales", "type": "in vivo", "details": "\"efficacy\" population", "procedure": "For the purposes of assessing the clinical efficacy of acetyl L-carnitine in early-onset AD patients. 8 different parallel-group, double-blind, randomized, placebo-controlled trials in which acetyl L-carnitine was administered chronically by mouth to subjects suffering from early-onset (before age 65) or late-onset (after age 65) Alzheimer's disease were pooled and assessed as a whole.\nAcetyl L-carnitine or placebo were administered at doses ranging from 2 to 3 g/day in the different studies. All patients recruited into these trials had diagnoses of probable Alzheimer's disease according to the criteria laid down by the DSM-III-R and the NINCDS-ADRDA; for recruitment patients had to have a Hachinski Ischemic Score of 4 points or less and no CT or NMR findings indicative of cerebral lesions other than those typical of Alzheimer's disease.\nA total of 834 patients were recruited into the 8 trials considered. Of these, 140 (16.8%) were suffering from early-onset AD (before 65 years of age according to the DSM-IV definition). The criterion adopted to identity these patients as early-onset was their actual age at the time of recruitment into the study.\nIn the 8 trials considered, the progression of Alzheimer's disease was assessed on the basis of cognitive clinical rating scales (cognitive section of the Alzheimer's Disease Assessment Scale [ADAS-Cog]; MMSE - Mini Mental State Examination; BIMC - Blessed Information Memory Concentration) and functional or global clinical scales (CDR - Clinical Dementia Rating Scale; BDS - Blessed Dementia Scale; CGI-S and -C - Clinical Global Impression of Severity and Change) according to the scientific criteria indicated and approved by the various international regulatory authorities."}, "[3]": {"details": "study ST-901, Functional, oral 3 g/day, 12 months"}, "[4]": {"details": "study ST-88102, Cognitive, oral 2-3 g/day, 44 weeks"}, "[5]": {"details": "study ST-88102, Functional, oral 2-3 g/day, 44 weeks"}, "[6]": {"details": "the 5 studies of 6 months, Functional, oral"}}}
{"smiles": "CC(=O)O[C@H](CC(=O)[O-])C[N+](C)(C)C", "note": "[Acetyl L-carnitine, acetyl L-carnitine]", "values": [{"measurement": "toxicity", "setting": "[1]", "value": "substantial non-toxicity"}, {"measurement": "BIMC, mean change in final value at 6-12 months compared to baseline", "setting": "[2]; study DRN2-006, Cognitive, oral 2 g/day, 12 months", "value": -3.5}, {"measurement": "BDS, mean change in final value at 6-12 months compared to baseline", "setting": "[2]; study DRN2-006, Functional, oral 2 g/day, 12 months", "value": 0.4}, {"measurement": "CDR, mean change in final value at 6-12 months compared to baseline", "setting": "[2]; [3]", "value": 1.9}, {"measurement": "CGI-C, mean change in final value at 6-12 months compared to baseline", "setting": "[2]; [3]", "value": 4.5}, {"measurement": "CGI-S, mean change in final value at 6-12 months compared to baseline", "setting": "[2]; [3]", "value": 0.3}, {"measurement": "ADAS-Cog, mean change in final value at 6-12 months compared to baseline", "setting": "[2]; [4]", "value": 4.7}, {"measurement": "MMSE, mean change in final value at 6-12 months compared to baseline", "setting": "[2]; [4]", "value": -2.1}, {"measurement": "BDS, mean change in final value at 6-12 months compared to baseline", "setting": "[2]; [5]", "value": 1.2}, {"measurement": "CGI-C, mean change in final value at 6-12 months compared to baseline", "setting": "[2]; [5]", "value": 4.4}, {"measurement": "CGI-S, mean change in final value at 6-12 months compared to baseline", "setting": "[2]; [5]", "value": 0.0}, {"measurement": "MMSE, mean change in final value at 6-12 months compared to baseline", "setting": "[2]; the 5 studies of 6 months, Cognitive, oral", "value": -0.7}, {"measurement": "CGI-C, mean change in final value at 6-12 months compared to baseline", "setting": "[2]; [6]", "value": 4.3}, {"measurement": "CGI-S, mean change in final value at 6-12 months compared to baseline", "setting": "[2]; [6]", "value": 0.2}]}
